Source: PubChem BioAssay (NCI)
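GI50 is the concentration that inhibits growth by half. TGI marks complete inhibition of growth.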

Columns and labels:
Assay in all cases: NCI-60 cell line screen, 384-well format
[1] = tested on: MDA-MB-468 breast
[2] = tested on: HT29 colon
[3] = tested on: UACC-257 melanoma
[4] = tested on: NCI/ADR-RES ovarian
[5] = tested on: HCT-15 colon
[6] = tested on: NCI-H460 NSCLC
[7] = tested on: KM12 colon
[8] = tested on: UACC-62 melanoma
[9] = tested on: IGROV1 ovarian
[10] = tested on: BT-549 breast
[11] = tested on: MDA-MB-435 melanoma
[12] = tested on: MDA-MB-231 breast
[13] = tested on: RPMI-8226 leukemia
[14] = tested on: SK-MEL-28 melanoma
[15] = tested on: M14 melanoma
[16] = tested on: SNB-75 CNS
[17] = tested on: EKVX NSCLC
[18] = tested on: SK-OV-3 ovarian
[19] = tested on: A498 renal
[20] = tested on: OVCAR-3 ovarian
[21] = tested on: HS 578T breast
[22] = tested on: SK-MEL-5 melanoma
[23] = tested on: TK-10 renal
[24] = tested on: SNB-19 CNS
[25] = tested on: SF-268 CNS
[26] = tested on: NCI-H226 lung
[27] = tested on: MCF7 breast
[28] = tested on: MOLT-4 leukemia
[29] = tested on: RXF 393 renal
[30] = tested on: SR leukemia
[31] = tested on: U251 glioblastoma
[32] = tested on: LOX IMVI melanoma
[33] = tested on: NCI-H322M lung
[34] = tested on: HL-60(TB) leukemia
[35] = tested on: OVCAR-4 ovarian
[36] = tested on: COLO 205 colon
[37] = tested on: T-47D breast
[38] = tested on: PC-3 prostate
[39] = tested on: ACHN renal
[40] = tested on: SN12C renal
[41] = tested on: A549 NSCLC
[42] = tested on: DU-145 prostate
[43] = tested on: HCC-2998 colon
[44] = tested on: HCT-116 colon
[45] = tested on: HOP-62 NSCLC
[46] = tested on: SF-539 CNS
[47] = tested on: CAKI-1 renal
[48] = tested on: HOP-92 NSCLC
[49] = tested on: NCI-H522 lung
[50] = tested on: NCI-H23 lung
[51] = tested on: SK-MEL-2 melanoma
[52] = tested on: UO-31 renal
[53] = tested on: SW-620 colon
[54] = tested on: OVCAR-8 ovarian
[55] = tested on: K-562 leukemia
[56] = tested on: OVCAR-5 ovarian
[57] = tested on: 786-0 renal
[58] = tested on: MALME-3M melanoma
[59] = tested on: SF-295 CNS

For `N#CCCNc1nonc1-c1nc2ccccc2n1CC(=O)c1ccc(N)cc1`, the GI50 [1] was < 10 nM, the TGI [1] was < 10 nM and the GI50 [2] was 21 nM. The TGI [2] was > 100000 nM, the GI50 [3] was < 10 nM and the TGI [3] was > 100000 nM. The GI50 [4] was < 10 nM, the TGI [4] was < 10 nM and the GI50 [5] was 16.7 nM. The TGI [5] was 48.6 nM, the GI50 [6] was < 10 nM and the TGI [6] was 20 nM. For the same compound, the GI50 [7] was < 10 nM, the TGI [7] was > 100000 nM and the GI50 [8] was < 10 nM. The TGI [8] was > 100000 nM, the GI50 [9] was 19.5 nM and the TGI [9] was 39300 nM. The GI50 [10] was < 10 nM, the TGI [10] was 35 nM and the GI50 [11] was < 10 nM. For the same compound, the TGI [11] was < 10 nM, the GI50 [12] was 59 nM and the TGI [12] was > 100000 nM. The GI50 [13] was < 10 nM, the TGI [13] was 22.2 nM and the GI50 [14] was 101 nM. The TGI [14] was > 100000 nM, the GI50 [15] was < 10 nM and the TGI [15] was 21 nM. For the same compound, the GI50 [16] was 12 nM, the TGI [16] was > 100000 nM and the GI50 [17] was < 10 nM. The TGI [17] was > 100000 nM, the GI50 [18] was < 10 nM and the TGI [18] was > 100000 nM. For the same compound, the GI50 [19] was < 10 nM, the TGI [19] was 36.5 nM and the GI50 [20] was < 10 nM. The TGI [20] was 14 nM, the GI50 [21] was < 10 nM and the TGI [21] was 11.4 nM. For the same compound, the GI50 [22] was < 10 nM, the TGI [22] was 17 nM and the GI50 [23] was < 10 nM. For the same compound, the TGI [23] was > 100000 nM, the GI50 [24] was < 10 nM and the TGI [24] was 92 nM. For the same compound, the GI50 [25] was < 10 nM, the TGI [25] was 51100 nM and the GI50 [26] was < 10 nM. For the same compound, the TGI [26] was 22.8 nM, the GI50 [27] was < 10 nM and the TGI [27] was > 100000 nM. For the same compound, the GI50 [28] was 19.2 nM, the TGI [28] was 33.7 nM and the GI50 [29] was < 10 nM. For the same compound, the TGI [29] was 10300 nM, the GI50 [30] was < 10 nM and the TGI [30] was < 10 nM. The GI50 [31] was < 10 nM, the TGI [31] was 40.7 nM and the GI50 [32] was 19 nM. For the same compound, the TGI [32] was 44.2 nM, the GI50 [33] was 53.1 nM and the TGI [33] was > 100000 nM. For the same compound, the GI50 [34] was < 10 nM, the TGI [34] was 16 nM and the GI50 [35] was < 10 nM. The TGI [35] was 2330 nM, the GI50 [36] was 20.7 nM and the TGI [36] was 56.6 nM. For the same compound, the GI50 [37] was 1870 nM, the TGI [37] was > 100000 nM and the GI50 [38] was 15.9 nM. The TGI [38] was > 100000 nM, the GI50 [39] was < 10 nM and the TGI [39] was 37300 nM. The GI50 [40] was 12.2 nM, the TGI [40] was 88.2 nM and the GI50 [41] was 22.7 nM. For the same compound, the TGI [41] was > 100000 nM, the GI50 [42] was 20.8 nM and the TGI [42] was 47.4 nM. The GI50 [43] was 15 nM, the TGI [43] was 47.5 nM and the GI50 [44] was < 10 nM. For the same compound, the TGI [44] was > 100000 nM, the GI50 [45] was < 10 nM and the TGI [45] was 503 nM. The GI50 [46] was < 10 nM, the TGI [46] was 25.7 nM and the GI50 [47] was < 10 nM. For the same compound, the TGI [47] was > 100000 nM, the GI50 [48] was 30.5 nM and the TGI [48] was > 100000 nM. For the same compound, the GI50 [49] was < 10 nM and the TGI [49] was < 10 nM.
Work on `COc1cccc2c1nc(C(F)F)n2-c1nc(-c2ccc(NS(=O)(=O)CCN(C)C)cc2)nc(N2CCOCC2)n1` yielded a GI50 [50] of 148 nM, a TGI [50] of 1040 nM and a GI50 [1] of 76.2 nM. For the same compound, the TGI [1] was 431 nM, the GI50 [2] was 238 nM and the TGI [2] was 1470 nM. The GI50 [3] was 292 nM, the TGI [3] was 1360 nM and the GI50 [5] was 300 nM. The TGI [5] was 1450 nM, the GI50 [6] was 302 nM and the TGI [6] was 1550 nM. It also gave a GI50 [7] of 110 nM, a TGI [7] of 1220 nM and a GI50 [8] of 206 nM. For the same compound, the TGI [8] was 1250 nM, the GI50 [9] was 24.9 nM and the TGI [9] was 96.3 nM. For the same compound, the GI50 [10] was 250 nM, the TGI [10] was 1400 nM and the GI50 [11] was 255 nM. It also gave a TGI [11] of 1390 nM, a GI50 [12] of 319 nM and a TGI [12] of 1800 nM. It also gave a GI50 [14] of 191 nM, a TGI [14] of 17100 nM and a GI50 [15] of 390 nM. The TGI [15] was 1710 nM, the GI50 [16] was 29.6 nM and the TGI [16] was 361 nM. The GI50 [17] was 53.9 nM, the TGI [17] was 426 nM and the GI50 [18] was 83.5 nM. The TGI [18] was 362 nM, the GI50 [19] was 171 nM and the TGI [19] was 961 nM. It also gave a GI50 [20] of 138 nM, a TGI [20] of 1110 nM and a GI50 [51] of 282 nM. It also gave a TGI [51] of 1540 nM, a GI50 [21] of 92.1 nM and a TGI [21] of 377 nM. The GI50 [22] was 93.8 nM, the TGI [22] was 371 nM and the GI50 [23] was 127 nM. It also gave a TGI [23] of 1220 nM, a GI50 [24] of 3800 nM and a TGI [24] of 22100 nM. For the same compound, the GI50 [25] was 374 nM, the TGI [25] was 1780 nM and the GI50 [26] was 195 nM. For the same compound, the TGI [26] was 873 nM, the GI50 [27] was 21.3 nM and the TGI [27] was 299 nM. It also gave a GI50 [52] of 125 nM, a TGI [52] of 384 nM and a GI50 [53] of 418 nM. For the same compound, the TGI [53] was 1780 nM, the GI50 [28] was 46.8 nM and the TGI [28] was 176 nM. The GI50 [29] was 22.4 nM, the TGI [29] was 364 nM and the GI50 [30] was 153 nM. For the same compound, the TGI [30] was 408 nM, the GI50 [31] was 1020 nM and the TGI [31] was 2200 nM. For the same compound, the GI50 [54] was 323 nM, the TGI [54] was 1590 nM and the GI50 [33] was 151 nM. For the same compound, the TGI [33] was 1090 nM, the GI50 [55] was 634 nM and the TGI [55] was 1950 nM. It also gave a GI50 [34] of 116 nM, a TGI [34] of 1100 nM and a GI50 [35] of 144 nM. The TGI [35] was 1550 nM, the GI50 [36] was 219 nM and the TGI [36] was 1100 nM. It also gave a GI50 [37] of 24 nM, a TGI [37] of 120 nM and a GI50 [38] of 122 nM. For the same compound, the TGI [38] was 1200 nM, the GI50 [39] was 144 nM and the TGI [39] was 1050 nM. The GI50 [40] was 229 nM, the TGI [40] was 12400 nM and the GI50 [41] was 297 nM. For the same compound, the TGI [41] was 1260 nM, the GI50 [56] was 266 nM and the TGI [56] was 5440 nM. The GI50 [57] was 491 nM, the TGI [57] was 1690 nM and the GI50 [42] was 263 nM. For the same compound, the TGI [42] was 1390 nM, the GI50 [44] was 320 nM and the TGI [44] was 1510 nM. The GI50 [45] was 285 nM, the TGI [45] was 1420 nM and the GI50 [46] was 179 nM. It also gave a TGI [46] of 1230 nM, a GI50 [47] of 200 nM and a TGI [47] of 1420 nM. The GI50 [58] was 127 nM, the TGI [58] was 874 nM and the GI50 [48] was 167 nM. For the same compound, the TGI [48] was 998 nM, the GI50 [59] was 161 nM and the TGI [59] was 1100 nM. For the same compound, the GI50 [49] was 98.7 nM and the TGI [49] was 689 nM.
